{
  "source": "patent USRE40594E1",
  "about": "“Inhibitors of the bitter taste response” (Mount Sinai School of Medicine of New York University, priority 1998, dated 2008)",
  "key": {"[1]": {"test_system": "glossopharyngeal nerve responses of C57BL/6J mice", "assay": "Glossopharyngeal nerve recording on lingual stimulation with tastants", "format": "in vivo", "experimental": "Nerve Recording. Glossopharyngeal nerve responses were recorded from male C57BL/6J mice as previously described (Ninomiya, Y., et al., 1997, Am. J. Physiol. (London) 272:R1002-RI006). Each mouse was anesthetized with intraperitoneal injection of sodium pentobarbital (40-50 mg/kg) and maintained at a surgical level of anesthesis with supplemental injections of the drug. The trachea was cannulated, and the mouse was then fixed in the supine position with a head holder to allow dissection of the glossopharyngeal nerve. The hypoglossal nerve was transected bilaterally to prevent inadvertent tongue movements. The right glossopharyngeal nerve was exposed by removal of the digastric muscle and posterior horn of the hyoid bone. The glossopharyngeal nerve was then dissected free from underlying tissues and cut near its entrance to the posterior foramen lacerum. The entire nerve was placed on a silver wire electrode for whole nerve recording. An indifferent electrode was positioned nearby in the wound. […] Whole nerve responses were integrated by using an RMS-DC converter (Hendrick, Tallahassee, Fla.) with a time constant of 0.5 s. For chemical stimulation of the circumvallate and foliate papillae, an incision was made on each side of the animal's face from the comer of the mouth to just above the angle of the jaw, the papillae were exposed, and their trenches opened via slight tension applied through a small suture sewn in the tip of the tongue. Tastant solutions were delivered to the tongue by gravity flow, and flowed over the tongue for a controlled period. The stability of each preparation was monitored by the periodic application of 0.1 M NH4Cl. A recording was considered to be stable when the 0.1 M NH4Cl response magnitudes at the beginning and end of each stimulation series deviated by no more than 15%. Only responses from stable recordings were used in the data analysis. In the analysis of whole nerve responses, the magnitudes of the integrated response at 20, 25, 30, 35. and 40 s after stimulus onset were measured and averaged to generate tonic responses: the tonic response represents the sustained nerve response to continuous tastant stimulation of taste receptor cells. The relative tonic response for each stimulus was obtained by normalization to the response from 0.1 M NH4Cl (the tonic response of NH4Cl was defined as 1.0). Student's t test was used for statistical analysis."}, "[2]": {"test_system": "bovine taste receptor cell membranes (taste receptors) with transducin", "assay": "G protein activation assay (trypsin sensitivity): activation of transducin by bitter tastant plus taste membranes", "format": "biochemical, Bovine (Bos primigenius)", "description": "Taste receptor is contacted with gustducin or transducin and tastant, in the presence or absence of test inhibitor, under conditions suitable for activation of the G-protein present. […] In specific non-limiting embodiments, a subunits of transducin or gustducin may be combined with βγ subunits prior to this step, as set forth above. To the reaction mixture comprising taste receptors and gustducin or transducin, test inhibitor and/or bitter tastant may be added, and the resulting solution incubated to permit interaction of the elements.\nIn preferred embodiments, activation is assessed by a trypsin digestion assay. […] In a specific, non-limiting example, to perform a trypsin digestion assay according to the invention, TPCK-treated trypsin (1:25 trypsin to total protein in the reaction mixture) may be added, and the digestion may be performed at room temperature for about 15 minutes and stopped by adding soybean trypsin inhibitor (6:1 mol/mol inhibitor to trypsin). […] The separated polypeptides may then be transferred by electro-blotter to a poly (vinylidene difluoride) membrane blocked by the addition of 5% BLOTTO [50 mM Tris-HCI, pH 7.4/100 mM NaCl/5% nonfat dry milk], (30 min). G-protein peptides may then be visualized by binding of antibody directed toward transducin or gustducin, followed, for example, by binding of a detectably labeled secondary antibody. If a horseradish peroxidase-labeled secondary antibody is used, binding may be visualized by developing with bicinchoninic acid staining reagents and exposure to x-ray film.\nG Protein Activation Assays. Bovine (Bos primigenius) tongues were collected fresh from a local slaughterhouse and transported on ice to the laboratory. Circumvallate papillae were hand dissected, frozen in liquid nitrogen, and stored at −80° C. until use. […] The pelleted membranes were rinsed twice, resuspended in homogenization buffer lacking protease inhibitors, and further homogenized by 20 passages through a 25-gauge needle. Aliquots were either flash frozen or stored on ice until use. […] The separated polypeptides were transferred by electro-blotter to a poly (vinylidene difluoride) membrane, which was blocked by the addition of 5% BLOTTO [50 mM Tris-HCI, pH 7.4/100 mM NaCl/5% nonfat dry milk], (30 min), then transducin peptides were visualized by binding of transducin antiserum and horseradish peroxidase-labeled goat anti-rabbit secondary antibody, followed by developing with bicinchoninic acid staining reagents from Bio-Rad and exposure to x-ray film.\nChemicals. All bitter tastant and buffer chemicals were of the highest purity available and were purchased either from Sigma or Boehringer Mannheim, unless otherwise noted. […] The rabbit polyclonal antitransducin antibody was a kind gift of Mel Simon and John Watson (California Institute of Technology, Pasadena, Calif.)."}, "C57BL/6J mice": {"test_system": "C57BL/6J mice", "assay": "Forty-eight-hour two-bottle preference test (behavioral assay)", "format": "in vivo", "experimental": "Behavioral Assays. Multiple sets of male C57BL/6J mice from the Jackson Laboratory were tested. Each set (n=10) was tested with tastant±AMP or GMP. Between tests, mice were provided with acidified water (pH 4.5) for about 2 wk. Tested mice ranged in age from 8 to 20 wk. Mice were individually housed, provided with food ad libitum (Pico Lab Mouse Diet 20 no. 5058; PMI Feeds, St. Louis, Mo.) and presented with distilled water in two sipper bottles for 48 h before testing. During each 48-h test period, a given concentration of tastant was provided in one sipper bottle, whereas the other had distilled water. After 24 h, volumes consumed were recorded, the bottles refilled, and positions reversed (to control for positional cues). Tastants were presented in ascending concentration. Preference ratios were calculated as the fraction of tastant consumed as a percentage of the total volume of liquid consumed. Mean preference ratios and Student's t tests were calculated from total collected data."}, "[3]": {"conditions": "DEN, QUI and other bitter compounds"}},
  "note": "Entries after “also recorded” stand apart in the source; their conditions may differ.",
  "data": [
    {"smiles": "Nc1ncnc2c1ncn2[C@@H]1O[C@H](COP(=O)(O)O)[C@@H](O)[C@H]1O", "note": "[AMP, adenosine 5′ monophosphate]", "values": [
      {"measurement": "inhibition of glossopharyngeal nerve responses to atropine", "setting": "[1]; 1.0 mM ATR, inhibitor 0.1 mM, FIGS. 4A-C", "result": "significantly inhibited"},
      {"measurement": "inhibition of glossopharyngeal nerve responses to sparteine", "setting": "[1]; 1.0 mM SPA, inhibitor 0.1 mM, FIGS. 4A-C, 4I (P<0.001)", "result": "inhibits; also recorded: significantly inhibited"},
      {"measurement": "inhibition of glossopharyngeal nerve responses to strychnine", "setting": "[1]; 1.0 mM STR, inhibitor 0.1 mM, FIGS. 4A-C", "result": "significantly inhibited"},
      {"measurement": "effect on glossopharyngeal nerve responses to SC45647", "setting": "[1]; 3.0 mM SC45647, 0.1 mM AMP, P<0.01, FIG. 4I", "result": "inhibits; also recorded: inhibited slightly; also recorded: did diminish"},
      {"measurement": "inhibition of glossopharyngeal nerve responses to DEN", "setting": "[1]; 5.0 mM DEN, inhibitor 0.1 mM, FIGS. 4A-C", "result": "significantly inhibited"},
      {"measurement": "effect on glossopharyngeal nerve responses to HCl", "setting": "[1]; 5.0 mM HCl, 0.1 mM AMP, FIG. 4I", "result": "did not affect"},
      {"measurement": "effect on glossopharyngeal nerve responses to NH4Cl", "setting": "[1]; 0.1 M NH4Cl, 0.1 mM AMP", "result": "did not affect"},
      {"measurement": "effect on glossopharyngeal nerve responses to NaCl", "setting": "[1]; 0.1 M NaCl, 0.1 mM AMP, FIG. 4I", "result": "did not affect"},
      {"measurement": "effect on glossopharyngeal nerve responses to sucrose", "setting": "[1]; 0.5 M sucrose, 0.1 mM AMP, FIG. 4I", "result": "did not affect"},
      {"measurement": "inhibition of relative tonic glossopharyngeal responses to rising DEN concentrations", "setting": "[1]; DEN 0.1, 0.5, 1.0, 5.0, 10.0 mM, AMP 0.1 and 1.0 mM, n=5 to 7, FIG. 4G", "result": "significantly inhibited"},
      {"measurement": "inhibition of gustatory (glossopharyngeal) nerve responses to bitter compounds, summary statement", "setting": "[1]; [3]", "result": "diminishes"},
      {"measurement": "inhibition of relative tonic glossopharyngeal responses to rising QUI concentrations", "setting": "[1]; QUI 0.1, 0.3, 1.0 mM, AMP 0.1 and 1.0 mM, n=6 to 8, FIG. 4H", "result": "significantly inhibited; also recorded: reached a plateau"},
      {"measurement": "inhibition of glossopharyngeal nerve responses to QUI", "setting": "[1]; QUI 0.1 and 1.0 mM, inhibitor 0.1 mM, FIGS. 4D-F", "result": "significantly inhibited"},
      {"measurement": "inhibition of activation of transducin by QUI plus bovine taste membranes", "setting": "[2]; 1.0 mM QUI, AMP 0.01-2.5 mM, FIG. 1B", "result": "inhibit; also recorded: inhibited in a dose-dependent fashion"},
      {"measurement": "inhibition of taste membrane-dependent activation of transducin by atropine hydrochloride", "setting": "[2]; AMP 2.5 mM, ATR 5.0 mM, FIG. 1C", "result": "inhibits; also recorded: inhibitory effect"},
      {"measurement": "inhibition of taste membrane-dependent activation of transducin by DEN", "setting": "[2]; AMP 2.5 mM, DEN 5.0 mM, FIG. 1C", "result": "inhibits; also recorded: inhibitory effect"},
      {"measurement": "inhibition of taste membrane-dependent activation of transducin by nicotine hemisulfate", "setting": "[2]; AMP 2.5 mM, NIC 5.0 mM, FIG. 1C", "result": "inhibits; also recorded: inhibitory effect"},
      {"measurement": "inhibition of taste membrane-dependent activation of transducin by QUI", "setting": "[2]; AMP 2.5 mM, QUI 1.0 mM, FIG. 1C", "result": "inhibits; also recorded: inhibitory effect"},
      {"measurement": "inhibition of taste membrane-dependent activation of transducin by strychnine hydrochloride", "setting": "[2]; AMP 2.5 mM, STR 5.0 mM, FIG. 1C", "result": "inhibits; also recorded: inhibitory effect"},
      {"measurement": "inhibition of in vitro activation of transducin (G-protein) by taste membranes plus bitter compounds, summary statement", "setting": "[2]; DEN, QUI and other bitter compounds, concentrations not given", "result": "inhibits"},
      {"measurement": "inhibition of taste membrane activation of transducin by caffeic acid", "setting": "[2]; concentrations not given", "result": "inhibitory effect"},
      {"measurement": "inhibition of taste membrane activation of transducin by naringin", "setting": "[2]; concentrations not given", "result": "inhibitory effect"},
      {"measurement": "inhibition of taste membrane activation of transducin by quinacrine", "setting": "[2]; concentrations not given", "result": "inhibitory effect"},
      {"measurement": "inhibition of taste membrane activation of transducin by sparteine", "setting": "[2]; concentrations not given", "result": "inhibitory effect"},
      {"measurement": "inhibition of activation of transducin by DEN plus bovine taste receptor membranes", "setting": "[2]; inhibitor 0.25, 0.5, 1.25, 2.5, 5.0 mM, DEN 5.0 mM, shift from 32-kDa to 23-kDa fragments, FIG. 1A/1E", "result": "inhibit; also recorded: inhibited in a dose-dependent fashion"},
      {"measurement": "shift of DEN dose-aversiveness curve", "setting": "C57BL/6J mice; AMP 0.1, 1.0, 5.0 mM, FIG. 3B", "result": "shifted the dose-aversiveness curve to the right"},
      {"measurement": "concentration at which AMP alone elicits behavioral responses", "setting": "C57BL/6J mice; AMP alone, two-bottle preference, FIG. 3B", "result": "≥ 0.5", "unit": "mM"},
      {"measurement": "inhibitory effect on aversive responses at highest concentration of DEN", "setting": "C57BL/6J mice; DEN 5.0 mM, FIGS. 3A-B", "result": "eliminated; also recorded: overcame"},
      {"measurement": "inhibition of aversive responses to DEN", "setting": "C57BL/6J mice; DEN 0.05, 0.10, 0.50, 1.0 mM, inhibitor 0.1 and 1.0 mM, n=10, P<0.001, FIG. 3A", "result": "inhibited"},
      {"measurement": "inhibition of behavioral (aversive) responses to bitter compounds, summary statement", "setting": "C57BL/6J mice; [3]", "result": "blocks"},
      {"measurement": "effect on behavioral responses to HCl", "setting": "C57BL/6J mice; HCl 0.01 and 0.10 mM, 0.1 mM AMP, FIG. 3E", "result": "did not alter; also recorded: did not affect"},
      {"measurement": "effect on behavioral responses to NaCl", "setting": "C57BL/6J mice; NaCl 0.1 and 0.3 M, 0.1 mM AMP, FIG. 3E", "result": "did not alter; also recorded: did not affect"},
      {"measurement": "inhibitory effect on aversive responses at highest concentration of QUI", "setting": "C57BL/6J mice; QUI 1.0 mM, FIGS. 3C-D", "result": "eliminated; also recorded: overcame"},
      {"measurement": "inhibition of aversive responses to QUI", "setting": "C57BL/6J mice; QUI 0.05, 0.10, 0.50 mM, inhibitor 0.1 and 0.5 mM, n=10, P<0.001, FIG. 3C", "result": "inhibited"},
      {"measurement": "effect on behavioral responses to SC45647", "setting": "C57BL/6J mice; SC45647 0.01 and 0.10 mM, 0.1 mM AMP, FIG. 3E", "result": "did not alter; also recorded: did not affect; also recorded: did not diminish"},
      {"measurement": "inhibition of aversive responses to sparteine (SPA)", "setting": "C57BL/6J mice; SPA 0.05 and 0.10 mM, 0.1 mM AMP, P<0.001, FIG. 3E", "result": "inhibited"},
      {"measurement": "inhibition of aversive responses to (−)-epicatechin", "setting": "C57BL/6J mice; epicatechin 0.05 and 0.10 mM, 0.1 mM AMP, P<0.01, FIG. 3E", "result": "inhibited"},
      {"measurement": "shift of QUI dose-aversiveness curve", "setting": "C57BL/6J mice; increasing concentrations of AMP, FIG. 3D", "result": "shifted the dose-aversiveness curve to the right"},
      {"measurement": "effect on behavioral responses to sucrose", "setting": "C57BL/6J mice; sucrose 5.0 and 150 mM, 0.1 mM AMP, FIG. 3E", "result": "did not alter; also recorded: did not affect"}
    ]}
  ]
}
